Test results published in paper PMC9019904, “AD Informer Set: Chemical tools to facilitate Alzheimer's disease drug discovery” (Alzheimer's & Dementia : Translational Research & Clinical …, 2022).

Tests used:
[1] = tested on: BV2 (mouse microglia) cell line; test: pHrodo-myelin phagocytosis/cell viability high content imaging assay: viability (cell count, nuclear area, nuclear intensity); settings: 48 hours treatment
How it was run: (§1)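 Cells adhered overnight, then were exposed to compounds at a single 10 μM for 48 h in total, with pHrodo-myelin added for the last 20 h. High-content imaging gave cell count per well as the main viability measure plus mean nuclear intensity per cell. Duplicate wells were averaged and expressed as % of untreated control.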

[2] = tested on: HMC3 (human microglia) cell line; test: as above; settings: 48 hours treatment
How it was run: as §1

[3] = tested on: BV2 (mouse microglia) cell line; test: pHrodo-myelin phagocytosis/cell viability high content imaging assay: phagocytosis signal; format: cell-based
How it was run: (§2)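 High content imaging, roughly 22 hours post pHrodo-myelin addition, recorded phagocytosis signal alongside viability in microglial lines BV2 (mouse) and HMC3 (human). Apoptosis tracked through intensity rise (early) and fall (later) among three extracted measurements.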

[4] = tested on: HMC3 (human microglia) cell line; test: as above; format: cell-based
How it was run: as §2

[5] = BV2 cells, 10 uM compound, 48 hours treatment, pHrodo-myelin final 20 hours
[6] = HMC3 cells, 10 uM compound, 48 hours treatment, pHrodo-myelin final 20 hours
[7] = BV2, compound 10 uM, pHrodo-myelin
[8] = HMC3, compound 10 uM, pHrodo-myelin

| Structure (SMILES) | 1. Cell count (% control) ([1]; BV2 cells, 10 uM compound) | 2. Nuclear Area (% Control) ([1]; BV2 cells, 10 uM compound) | 3. Nuclear DNA Intensity (% control) ([1]; BV2 cells, 10 uM compound) | 1. Cell count (% control) ([2]; HMC3 cells, 10 uM compound) | 2. Nuclear Area (% Control) ([2]; HMC3 cells, 10 uM compound) | 3. Nuclear DNA Intensity (% control) ([2]; HMC3 cells, 10 uM compound) | 4. Phagocytosis (% control) [3, 5] [% control] | 4. Phagocytosis (% control) [4, 6] [% control] | 1. Cell count (% control) ([1]; BV2, compound 10 uM) | 2. Nuclear Area (% Control) ([1]; BV2, compound 10 uM) | 3. Nuclear DNA Intensity (% control) ([1]; BV2, compound 10 uM) | 1. Cell count (% control) ([2]; HMC3, compound 10 uM) | 2. Nuclear Area (% Control) ([2]; HMC3, compound 10 uM) | 3. Nuclear DNA Intensity (% control) ([2]; HMC3, compound 10 uM) | 4. Phagocytosis (% control) [3, 7] [% control] | 4. Phagocytosis (% control) [4, 8] [% control] |
| --- | --- | --- | --- | --- | --- | --- | --- | --- | --- | --- | --- | --- | --- | --- | --- | --- |
| CC(C)CCC[C@@H](C)[C@H]1CC[C@H]2[C@@H]3CC[C@H]4C[C@H](N)CC[C@]4(C)[C@H]3CC[C@]12C [UNC10302970A] | 18.3 | 108.5 | 93.1 | 97.2 | 81.8 | 134.0 | 160.9 | 40.9 | – | – | – | – | – | – | – | – |
| CC(C)(C)c1cc(NC(=O)Nc2ccc(-c3cn4c(n3)sc3cc(OCCN5CCOCC5)ccc34)cc2)no1 [UNC10220373A] | – | – | – | – | – | – | – | – | 110.4 | 100.2 | 106.6 | 110.3 | 101.4 | 94.2 | 143.1 | 81.7 |
| Cl.NC(=O)c1cnc(N[C@@H]2CCCC[C@@H]2N)nc1Nc1cccc(-n2nccn2)c1 [UNC10302682A] | 28.1 | 80.4 | 42.1 | 54.1 | 63.7 | 181.4 | 0.00121 | 0.13 | – | – | – | – | – | – | – | – |
| Oc1c(F)cc(-c2cnccc2-c2ccc(N3CCOCC3)cc2)cc1F [UNC10302871A] | – | – | – | – | – | – | – | – | 98.2 | 107.6 | 98.3 | 123.1 | 101.3 | 92.9 | 174.2 | 84.7 |
| CC(C)(C(=O)O)c1ccc(C(O)CCCN2CCC(C(O)(c3ccccc3)c3ccccc3)CC2)cc1.Cl (stereo not drawn) [UNC10100548A] | 104.5 | 103.6 | 104.0 | 137.5 | 98.8 | 98.9 | 106.0 | 96.5 | – | – | – | – | – | – | – | – |
| O=C(NC1CC1)C(=O)C(Cc1ccccc1)NC(=O)[C@H]1CCC(=O)N1Cc1ccccc1 (stereo partly drawn) [UNC10302676A] | 127.5 | 105.0 | 102.8 | 123.8 | 98.7 | 104.1 | 108.4 | 95.9 | – | – | – | – | – | – | – | – |
| COc1ccc(CCCN2CCC(COC(c3ccccc3)c3ccccc3)CC2)cc1 [UNC10303165A] | – | – | – | – | – | – | – | – | 87.4 | 108.5 | 107.0 | 110.9 | 113.8 | 93.8 | 176.2 | 43.5 |
| O=C(/C=C/c1ccco1)Nc1ncc(Cc2ccccc2)s1 [UNC10302883A] | 36.1 | 95.3 | 118.7 | 163.4 | 60.3 | 203.4 | 12.7 | 17.7 | – | – | – | – | – | – | – | – |
| CC(C)c1ccc(/C=N/NC(=O)c2ccc(O)cc2)cc1 [UNC10302878A] | 104.0 | 103.1 | 108.0 | 137.1 | 101.0 | 96.0 | 129.4 | 80.2 | – | – | – | – | – | – | – | – |
| Cc1cc(Nc2ncc(Cl)c(Nc3ccccc3S(=O)(=O)C(C)C)n2)c(OC(C)C)cc1C1CCNCC1 [UNC10244729A] | 19.2 | 92.5 | 49.1 | 28.7 | 60.3 | 155.5 | 0.00122 | 0.00248 | – | – | – | – | – | – | – | – |
| CCOC(=O)c1sc(NC(=O)c2ccco2)c(SC#N)c1C [UNC10302907A] | 60.9 | 107.8 | 107.1 | 96.1 | 63.3 | 173.6 | 201.8 | 29.4 | – | – | – | – | – | – | – | – |
| O=S(=O)(c1ccccc1)N(CC(F)(F)F)c1ccc(C(O)(C(F)(F)F)C(F)(F)F)cc1 [UNC10302875A] | 109.2 | 107.3 | 110.7 | 121.7 | 100.6 | 97.9 | 216.4 | 59.3 | – | – | – | – | – | – | – | – |
| N[C@@H](CC(=O)Nc1ccc(Oc2cc(F)c(F)cc2Br)cc1)C(=O)O [UNC10303167A] | – | – | – | – | – | – | – | – | 64.5 | 104.8 | 103.7 | 105.9 | 102.5 | 96.0 | 179.3 | 85.8 |
| Cc1cc2c(cc1-c1cc(/C=C\C(=O)O)ccc1O)C(C)(C)CCC2(C)C [UNC10302903A] | 102.7 | 107.7 | 96.7 | 106.9 | 99.9 | 95.8 | 143.5 | 96.9 | – | – | – | – | – | – | – | – |
| O=C(NNc1nc2cc(F)ccc2n2cccc12)c1cnccn1 [UNC10302850A] | 29.4 | 129.5 | 94.0 | 86.1 | 94.6 | 106.5 | 362.4 | 103.0 | – | – | – | – | – | – | – | – |
